Reference: patent US10059688B2, “Protein tyrosine kinase modulators and methods of use” (BETTA PHARMACEUTICALS CO., LTD., priority 2013, dated 2018)
Like-named read-outs stand apart in the source and are kept apart here.

Assays:
[1] = molecular target: ALK (h) (Homo sapiens (Human), UniProt Q9UM73); assay: Kinase assay, single dose inhibition (Millipore, 33P-ATP filter binding); type: biochemical; conditions: 0.1 μM test compound, 10 μM ATP; remaining activity relative to DMSO control = 100%
Experimental: (§1) Assay conditions included 10 μM ATP and 100 nM test compounds.
(§2) All reactions are initiated by the addition of the MgATP mix. After incubation for 40 minutes at room temperature, the reaction is stopped by the addition of 3% phosphoric acid solution. 10 μL of the reaction is then spotted onto a P30 filtermat and washed three times for 5 minutes in 75 mM phosphoric acid and once in methanol prior to drying and scintillation counting. This assay is performed by Millipore. The experiment is carried out in duplicate. The value for the control sample (DMSO) was set to 100%, and the values for the compound-treated samples were expressed as activity relative to the control sample.

[2] = molecular target: EGFR (h) (Homo sapiens (Human), UniProt P00533); assay: as above; type: biochemical; conditions: 0.1 μM test compound, 10 μM ATP; remaining activity relative to DMSO control = 100%
Experimental: as §1, §2

[3] = molecular target: EGFR (L858R) (h) (Homo sapiens (Human), UniProt P00533, L858R); assay: as above; type: biochemical; conditions: 0.1 μM test compound, 10 μM ATP; remaining activity relative to DMSO control = 100%
Experimental: as §1, §2

[4] = molecular target: EGFR (T790M) (h) (Homo sapiens (Human), UniProt P00533, T790M); assay: as above; type: biochemical; conditions: 0.1 μM test compound, 10 μM ATP; remaining activity relative to DMSO control = 100%
[5] = molecular target: EGFR (T790M, L858R) (h) (Homo sapiens (Human), UniProt P00533, L858R/T790M); assay: as above; type: biochemical; conditions: 0.1 μM test compound, 10 μM ATP; remaining activity relative to DMSO control = 100%
Experimental: as §1, §2

[6] = test system: H1975 (EGFR L858R/T790M) NSCLC cells; assay: Cell proliferation assay (MTS cell viability); type: cell-based; conditions: H1975 cells, 3 days of exposure, MTS
[7] = test system: HCC827 (EGFR Del) NSCLC cells; assay: Cell proliferation assay (MTS cell viability); type: cell-based; conditions: HCC827 cells, 3 days of exposure, MTS
[8] = test system: A549 (EGFR WT) NSCLC cells; assay: Cell proliferation assay (MTS cell viability); type: cell-based; conditions: A549 cells, 3 days of exposure, MTS
Experimental: (§3) Effects of test compounds on in vitro proliferation were measured by MTS cell viability assay.
A549 cells were maintained in Ham's F12K medium (Gibco) supplemented with 10% FBS, 100 units/mL penicillin, 100 units/mL streptomycin, and 2 mM glutamine.
(§4) Prepare test compounds in each well with a final medium volume of 200 μl;
Incubate for 3 days of exposure;
(§5) Prepare reagents following the instructions in the Cell Proliferation Assay kit (Promega);
(§6) Change to serum-free medium with a final volume of 100 l/well. Prepare a set of wells with medium only for background subtraction;
(§7) Add 20 μl MTS solution containing PMS to each well (final concentration of MTS will be 0.33 mg/ml);
(§8) Incubate 1 to 4 hours at 37° C. in a humidified, 5% CO2 atmosphere.
(§9) Record absorbance at 490 nm using VICTOR™ X5 plate reader (PerkinElmer).
(§10) All experimental points were set up in three wells and all experiments were repeated at least three times.

[9] = test system: A431 (EGFR WT) cells; assay: Cell proliferation assay (MTS cell viability); type: cell-based; conditions: 3 days of exposure
Experimental: as §3
A431 cells were maintained in DMEM (Gibco) supplemented with 10% FBS, 100 units/mL penicillin, 100 units/mL streptomycin, and 2 mM glutamine.
as §4
Incubate for 3 days of exposure;
as §5, §6, §7, §8, §9, §10

[10] = molecular target: ALK (Homo sapiens (Human), UniProt Q9UM73); assay: Kinase assay (IC50), fluorescence peptide assay; type: biochemical; conditions: 10 pt curve, 1 μM top concentration, Km ATP
Experimental: (§11) 2.5 μL—4× Test Compound or 100 nL 100× plus 2.4 μL kinase buffer;
5 μL—2× Peptide/Kinase Mixture;
5 μL—Development Reagent Solution;
(§12) 60-minute Development Reaction incubation at room temperature;
(§13) Read on fluorescence plate reader and analyze the data.

[11] = test system: activated and resistant T790M forms of EGFR; EGFR WT; assay: In vitro cellular assays, statements across cell lines; type: cell-based; conditions: result in words
Experimental: as §3

[12] = molecular target: EGFR (ErbB1) T790M (Homo sapiens (Human), UniProt P00533, T790M); assay: Kinase assay (IC50), fluorescence peptide assay; type: biochemical; conditions: 10 pt curve, 1 μM top concentration, Km ATP
Experimental: as §11
5 μL—2× Peptide/Kinase Mixture;
5 μL—Development Reagent Solution;
as §12, §13

[13] = molecular target: EGFR (ErbB1) (Homo sapiens (Human), UniProt P00533); assay: Kinase assay (IC50), fluorescence peptide assay; type: biochemical; conditions: EGFR WT; 10 pt curve, 10 μM top concentration, Km ATP
Experimental: as §11
5 μL—2× Peptide/Kinase Mixture;
5 μL—Development Reagent Solution;
as §12, §13

[14] = molecular target: EGFR (ErbB1) T790M L858R (Homo sapiens (Human), UniProt P00533, L858R/T790M)
Experimental: as §11
5 μL—2× Peptide/Kinase Mixture;
5 μL—Development Reagent Solution;
as §12, §13

[15] = molecular target: EGFR (ErbB1) L858R (Homo sapiens (Human), UniProt P00533, L858R); assay: Kinase assay (IC50), fluorescence peptide assay; conditions: read-out: IC50 EGFR (ErbB1) L858R; 10 pt curve, 1 μM top concentration, Km ATP

Chain of ALK (h) (Q9UM73 19-1620): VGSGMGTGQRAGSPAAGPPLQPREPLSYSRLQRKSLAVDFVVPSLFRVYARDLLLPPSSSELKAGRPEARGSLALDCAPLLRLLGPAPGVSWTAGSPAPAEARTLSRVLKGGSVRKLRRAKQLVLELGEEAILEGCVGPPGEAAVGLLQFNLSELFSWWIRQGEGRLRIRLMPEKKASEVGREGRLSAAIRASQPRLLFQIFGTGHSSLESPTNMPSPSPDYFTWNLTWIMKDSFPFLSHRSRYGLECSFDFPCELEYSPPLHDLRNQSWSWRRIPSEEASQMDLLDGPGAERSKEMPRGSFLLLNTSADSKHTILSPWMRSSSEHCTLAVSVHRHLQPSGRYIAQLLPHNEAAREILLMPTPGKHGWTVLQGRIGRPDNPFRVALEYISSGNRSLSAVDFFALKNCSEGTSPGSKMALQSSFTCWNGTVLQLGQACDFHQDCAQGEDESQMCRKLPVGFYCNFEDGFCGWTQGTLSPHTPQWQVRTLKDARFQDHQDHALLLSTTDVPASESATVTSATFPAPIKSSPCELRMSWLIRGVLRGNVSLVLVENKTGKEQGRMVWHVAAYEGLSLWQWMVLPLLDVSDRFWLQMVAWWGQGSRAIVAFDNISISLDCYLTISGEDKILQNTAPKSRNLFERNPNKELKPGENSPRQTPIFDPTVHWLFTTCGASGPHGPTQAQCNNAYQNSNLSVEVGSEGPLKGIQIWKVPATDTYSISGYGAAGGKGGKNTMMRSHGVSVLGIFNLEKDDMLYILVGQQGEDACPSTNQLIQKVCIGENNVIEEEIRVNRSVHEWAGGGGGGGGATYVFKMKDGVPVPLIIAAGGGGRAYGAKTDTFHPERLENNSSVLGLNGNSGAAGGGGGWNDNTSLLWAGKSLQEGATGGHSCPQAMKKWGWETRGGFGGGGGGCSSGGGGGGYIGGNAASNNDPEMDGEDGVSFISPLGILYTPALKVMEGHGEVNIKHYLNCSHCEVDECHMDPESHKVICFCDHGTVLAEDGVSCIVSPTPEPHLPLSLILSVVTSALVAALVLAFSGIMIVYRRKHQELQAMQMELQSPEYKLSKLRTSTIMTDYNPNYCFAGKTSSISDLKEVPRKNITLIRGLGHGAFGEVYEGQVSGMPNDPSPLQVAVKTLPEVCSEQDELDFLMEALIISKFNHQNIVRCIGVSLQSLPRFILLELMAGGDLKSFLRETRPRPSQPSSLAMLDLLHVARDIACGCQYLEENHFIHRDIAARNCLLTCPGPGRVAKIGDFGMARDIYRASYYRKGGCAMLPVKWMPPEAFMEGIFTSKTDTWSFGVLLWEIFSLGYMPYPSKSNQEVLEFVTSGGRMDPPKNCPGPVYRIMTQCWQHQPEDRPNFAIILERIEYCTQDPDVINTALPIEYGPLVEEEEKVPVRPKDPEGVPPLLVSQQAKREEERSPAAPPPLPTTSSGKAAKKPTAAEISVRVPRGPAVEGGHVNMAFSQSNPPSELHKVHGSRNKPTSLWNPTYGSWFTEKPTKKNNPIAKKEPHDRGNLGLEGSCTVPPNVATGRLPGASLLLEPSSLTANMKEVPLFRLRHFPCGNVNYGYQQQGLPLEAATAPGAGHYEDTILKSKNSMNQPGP
Chain of ALK (Q9UM73 19-1620): as above

Row | Molecule | Activity (control) % ALK (h) [1] [%] | Activity (control) % EGFR (h) [2] [%] | Activity (control) % EGFR (L858R) (h) [3] [%] | Activity (control) % EGFR (T790M) (h) [4] [%] | Activity (control) % EGFR (T790M, L858R) (h) [5] [%] | IC50 ([6]; Homo sapiens, NCI-H1975, 72 h) [nM] | IC50 ([7]; Homo sapiens, 72 h) [nM] | IC50 ([8]; Homo sapiens, 72 h) [nM] | IC50 ([9]; Homo sapiens, A-431, 72 h) [nM] | IC50 [10] [nM] | activity against both activated and resistant T790M forms of EGFR in vitro cellular assays [11] | IC50 [12] [nM] | IC50 [13] [nM] | IC50 ([14]; read-out: IC50, resistant mutant EGFR L858R/T790M) [nM] | IC50 ([14]; read-out: IC50 EGFR (ErbB1) T790M L858R, 10 pt curve, 1 μM top concentration, Km ATP) [nM] | IC50 [15] [nM] | IC50 [6] [nM] | IC50 [7] [nM] | IC50 [8] [nM] | IC50 [9] [nM]
1 | COc1cc(N2CCC(N(C)C)CC2)ccc1Nc1ncc(Cl)c(Nc2ccccc2C(=O)C(N)=O)n1 [Example 4, 2-(2-(5-chloro-2-(4-(4-(dimethylamino)piperidin-1-yl)-2-methoxyphenylamino)pyrimidin-4-ylamino)phenyl)-2-oxoacetamide] | 8 | 65 | 8 | 4 | 2 | > 3000 | 2630 | > 3000 | – | – | – | – | – | – | – | – | – | – | – | –
2 | COc1cc(N2CCC(N(C)C)CC2)ccc1Nc1ncc(Cl)c(Nc2ccccc2C(=O)C(=O)N(C)C)n1 [Example 17, 2-(2-((5-chloro-2-((4-(4-(dimethylamino)piperidin-1-yl)-2-methoxyphenyl)amino)pyrimidin-4-yl)amino)phenyl)-N,N-dimethyl-2-oxoacetamide] | – | – | – | – | – | 860 | 1230 | > 3000 | 260 | – | – | – | – | – | – | – | – | – | – | –
3 | C=CC(=O)Nc1cccc(Nc2ncc(Cl)c(Nc3ccccc3C(=O)C(=O)N(C)C)n2)c1 [Example 40, N-(3-(5-chloro-4-(2-(2-(dimethylamino)-2-oxoacetyl)phenylamino)pyrimidin-2-ylamino)phenyl)acrylamide] | 28 | 106 | 103 | 79 | 24 | 10 | 70 | 640 | – | – | – | – | – | – | – | – | – | – | – | –
4 | COc1cc(N2CCN(C(C)=O)CC2)ccc1Nc1ncc(Cl)c(Nc2ccccc2C(=O)C(=O)N(C)C)n1 [Example 53, 2-(2-(2-(4-(4-acetylpiperazin-1-yl)-2-methoxyphenylamino)-5-chloropyrimidin-4-ylamino)phenyl)-N,N-dimethyl-2-oxoacetamide] | – | 109 | 60 | 21 | 4 | 210 | 540 | > 3000 | 50 | – | – | – | – | – | – | – | – | – | – | –
5 | COc1cc(Nc2ncc(Cl)c(Nc3ccccc3C(=O)C(=O)N(C)C)n2)ccc1N1CCN(C)CC1 [Example 61, 2-(2-(5-chloro-2-(3-methoxy-4-(4-methylpiperazin-1-yl)phenylamino)pyrimidin-4-ylamino)phenyl)-N,N-dimethyl-2-oxoacetamide] | 5 | 101 | 70 | 54 | 13 | – | – | – | – | 12.2 | – | – | – | – | – | – | – | – | – | –
6 | C=CC(=O)Nc1cc(Nc2ncc(Cl)c(Nc3ccccc3C(=O)C(=O)NC)n2)ccc1OC [Example 64, N-(5-(5-chloro-4-(2-(2-(methylamino)-2-oxoacetyl)phenylamino)pyrimidin-2-ylamino)-2-methoxyphenyl)acrylamide] | 47 | 106 | 100 | 79 | 39 | 90 | 450 | > 3000 | – | – | – | – | – | – | – | – | – | – | – | –
7 | C=CC(=O)Nc1cc(Nc2ncc(Cl)c(Nc3ccccc3C(=O)C(=O)N(C)C)n2)ccc1OC [Example 65, N-(5-(5-chloro-4-(2-(2-(dimethylamino)-2-oxoacetyl)phenylamino)pyrimidin-2-ylamino)-2-methoxyphenyl)acrylamide] | 19 | 118 | 102 | 80 | 25 | 20 | 120 | > 3000 | – | – | potent activity | – | – | – | – | – | – | – | – | –
8 | C=CC(=O)Nc1cc(Nc2ncc(Cl)c(Nc3ccccc3C(=O)C(=O)N(C)C)n2)c(OC)cc1F [Example 66, N-(5-(5-chloro-4-(2-(2-(dimethylamino)-2-oxoacetyl)phenylamino)pyrimidin-2-ylamino)-2-fluoro-4-methoxyphenyl)acrylamide] | 35 | 107 | 104 | 66 | 24 | 50 | 120 | > 3000 | – | – | potent activity | – | – | – | – | – | – | – | – | –
9 | C=CC(=O)Nc1cc(Nc2ncc(Cl)c(Nc3ccccc3C(=O)C(=O)N(C)C)n2)c(F)cc1OC [Example 69, N-(5-(5-chloro-4-(2-(2-(dimethylamino)-2-oxoactyl)phenylamino)pyrimidin-2-ylamino)-4-fluoro-2-methoxyphenyl)acrylamide] | – | – | – | – | – | 310 | 1200 | > 3000 | – | – | – | – | – | – | – | – | – | – | – | –
10 | C/C=C/C(=O)Nc1ccc(OC)c(Nc2ncc(Cl)c(Nc3ccccc3C(=O)C(=O)N(C)C)n2)c1 [Example 70, (E)-N-(3-(5-chloro-4-(2-(2-(dimethylamino)-2-oxoacetyl)phenylamino)pyrimidin-2-ylamino)-4-methoxyphenyl)but-2-enamide] | – | – | – | – | – | 310 | 1050 | 1370 | – | – | – | – | – | – | – | – | – | – | – | –
11 | C=C(CN1CCOCC1)C(=O)Nc1cccc(Nc2ncc(Cl)c(Nc3ccccc3C(=O)C(=O)N(C)C)n2)c1 [Example 112, N-(3-(5-chloro-4-(2-(2-(dimethylamino)-2-oxoacetyl)phenylamino)pyrimidin-2-ylamino)phenyl)-2-(morpholinomethyl)acrylamide] | 21 | 85 | 66 | 14 | 1 | 10 | 30 | 40 | 100 | – | potent activity | – | – | – | – | – | – | – | – | –
12 | C=C(CN(C)CCN(C)C)C(=O)Nc1ccc(OC)c(Nc2ncc(Cl)c(Nc3ccccc3C(=O)C(=O)N(C)C)n2)c1 [Example 126, N-(3-(5-chloro-4-(2-(2-(dimethylamino)-2-oxoactyl)phenylamino)pyrimidin-2-ylamino)-4-methoxyphenyl)-2-(((2-(dimethylamino)ethyl)(methyl)amino)methyl)acrylamide] | 19 | 93 | 47 | 5 | 2 | 10 | 20 | – | 210 | – | – | – | – | – | – | – | – | – | – | –
13 | C=CC(=O)Nc1ccc(OC)c(Nc2ncc(Cl)c(Nc3ccccc3C(=O)C(=O)N(CC)CC)n2)c1 [Example 131, N-(3-(5-chloro-4-(2-(2-(diethylamino)-2-oxoacetyl)phenylamino)pyrimidin-2-ylamino)-4-methoxyphenyl)acrylamide] | 9 | 104 | 104 | 82 | 27 | 10 | 50 | – | 750 | – | – | – | – | – | – | – | – | – | – | –
14 | C#Cc1cccc(Nc2ncnc3cc4c(cc23)OCCOCCOCCO4)c1 [Icotinib, reference compound] | – | – | – | – | – | – | – | – | – | – | – | > 1000 | 1.23 | ≥ 16.6 | > 1000 | 2.02 | – | – | – | –
15 | N-(5-(5-chloro-4-(2-(2-(dimethylamino)-2-oxoactyl)phenylamino)pyrimidin-2-ylamino)-4-methoxy-2-(4-methylpiperazin-1-yl)phenyl)acrylamide [Example 74] | 9 | 110 | – | 62 | – | – | – | – | – | – | potent activity | – | – | – | – | – | 50 | 30 | 620 | 50
